{
  "source": "patent US20170246144A1",
  "about": "“METHOD OF PREVENTING OR TREATING SPINOCEREBELLAR ATAXIA BY ADMINISTRATING SILIBININ” (National Taiwan Normal University, priority 2016, published 2017)",
  "key": {"nTBP/Q79-EGFP cells": {"tested_on": "nTBP/Q79-EGFP cells", "assay": "Western blotting of caspase family proteins in Dox-induced nTBP/Q79-EGFP cells", "assay_type": "cell-based", "settings": "Homo sapiens, 120 h, Dox 5 days", "description": "FIGS. 8A-8C show the effects of SB on improving the viability of nTBP/Q79-EGFP cells and inhibiting the expression levels of cleaved caspase-9, cleaved caspase-3, and cleaved PARP in nTBP/Q79-EGFP cells induced by doxycycline (Dox). FIG. 8A: The viabilities of 1.0×10^6 nTBP/Q36-EGFP cells and nTBP/Q79-EGFP cells which were pretreated with 15 μM SB for 1 hour followed by the induction of Dox for 1, 3, and 5 days were measured by MTT assay. FIG. 8B: 1.0×10^6 nTBP/Q36-EGFP cells and nTBP/Q79-EGFP cells were pretreated with 15 μM SB for 1 hour followed by the induction of Dox for 5 days. The levels of cleaved caspase-9, cleaved caspase-3, and cleaved PARP were detected by western blotting. Actin was used as a loading control. […] The results were shown as mean±SD, n=3, *p<0.05, comparing to the Dox group.\nWestern blotting was used to determine whether silibinin can inhibit cell death due to the expression of nTBP/Q79-EGFP via caspase-dependent apoptosis pathway.\nnTBP/Q36-EGFP cells and nTBP/Q79-EGFP cells were treated with 15 μM silibinin for 1 hour followed by the treatment of 10 μg/mL Dox and RA for 5 days."}, "SCA17 transgenic mice": {"tested_on": "SCA17 transgenic mice", "assay": "Western blotting of TBP/polyQ aggregation and cleaved caspase 3 in cerebellum of SCA17 mice", "assay_type": "in vivo", "settings": "4.5 mg/kg i.p. once every 2 days, 20 weeks old", "description": "FIGS. 11A and 11B show the effects of SB on the levels of TBP (N12) and cleaved caspase-3 in SCA17 transgenic mice. Mice were grouped into wild type-saline (WT-saline), transgenic-saline (TG-saline), and transgenic-SB treatment (TG-SB) groups. Mice were injected intraperitoneally with saline or SB (4.5 mg/kg) at 8-week old once every 2 days. FIG. 11A: The extent of TBP aggregation (detected with TBP (N12) antibody) and the levels of cleaved caspase-3 in the cerebella of mice were measured by western blotting at 20-week old. Actin was used as a loading control. […] The results were shown as mean±SEM, n=6, *p<0.05, comparing to the TG-saline group.\n(§1) Since the SCA17 mice were 8 weeks old, the mice were injected intraperitoneally with silibinin in saline at 4.5 mg/kg once every 2 days, designated as TG_SB group. The mice in TG_saline group were injected with same amount of saline.\nIn order to understand whether silibinin can reduce TBP/polyQ protein aggregation and the expression of cleaved-caspase 3 in the cerebellum of SCA17 mouse, TBP/polyQ protein aggregation and the expression of cleaved-caspase 3 in the cerebellum of SCA17 mouse were measured. […]"}, "SH-SY5Y cells [1]": {"tested_on": "SH-SY5Y cells", "assay": "Western blotting of cleaved caspase-9, cleaved caspase-3 and cleaved PARP after MSG", "assay_type": "cell-based, Human", "settings": "15 μM, 100 mM MSG, 24 hours", "description": "FIGS. 5A-5D show the effects of SB on the levels of cleaved caspase-9, cleaved caspase-3, and cleaved poly(ADP-ribose) polymerase (PARP) in SH-SY5Y cells treated with MSG FIG. 5A: The levels of […] in 1×10^6 SH-SY5Y cells were measured by western blotting, wherein the control group (Ctrl) was untreated SH-SY5Y cells or the cells were treated with 100 mM MSG, 100 mM MSG+15 μM SB or 100 mM MSG+10 μM MK801 (MK) for 24 hours. Actin was used as a loading control. FIGS. 5B-5D show the quantification results measured by western blotting. Data were the mean values of three independent experiments.\nCaspase belongs to cysteine protease family which is typically closely related to apoptosis, wherein the activation of caspase-9, caspase-3 and […] PARP is associated with delayed excitotoxicity damages. Therefore, western blotting was performed to analyze whether silibinin can protect SH-SY5Y cells from death via caspase-dependent apoptosis pathway in the present embodiment."}, "SH-SY5Y cells [2]": {"tested_on": "SH-SY5Y cells", "assay": "Annexin V-FITC/PI flow cytometry, apoptosis induced by MSG", "assay_type": "cell-based, Human", "settings": "15 μM, 100 mM MSG, 24 hours", "description": "1×10^6 SH-SY5Y cells were treated with 100 mM MSG and 15 μM SB or 10 μM MK801 (MK) for 24 hours. Cells were stained with Annexin-V/PI and the apoptosis was measured with a flow cytometry.\nIn order to detect the effects of silibinin in inhibiting the apoptosis induced by glutamate in SH-SY5Y cells. The cells were measured by flow cytometry using Annexin V-FITC/propidium iodide (PI) double-labeling method.\nSH-SY5Y cells were seeded in dish and were treated with 100 mM MSG in combination of 15 μM silibinin or 10 μM MK801 for 24 hours. The cells were then trypsinized and collected by centrifugation at 2,000 rpm for […] followed by double-staining with Annexin V-FITC and PI. Stained cells were analyzed with a flow cytometry (FACS Sorter, Becton, Dickinson and Company). 10,000 cells were recorded in each experiment."}, "[3]": {"assay": "Body weight of SCA17 transgenic mice", "assay_type": "in vivo", "settings": "4.5 mg/kg i.p. once every 2 days, 10 to 20 weeks old", "description": "FIGS. 10A-10F show the effects of SB on the body weight and motor performance in SCA17 transgenic mice. Mice were grouped into wild type-saline (WT-saline), transgenic-saline (TG-saline), and transgenic-SB treatment (TG-SB) groups. Mice were injected intraperitoneally with saline or SB (4.5 mg/kg) at 8-week old once every 2 days. […] FIG. 10E and FIG. 10F show respectively the stride length of front-limb/hind-limb at the right-side and the left-side. The values represent means±SD, n=6. *p<0.05, comparing to the TG-saline group.\nIn order to understand the efficacy of silibinin in treating SCA17 in vivo, SCA17 transgenic mice (referring as SCA17 mice hereinafter) were used, which were kindly provided by Dr. Hsiu-Mei Hsieh in NTNU.\nThe mice were housed individually in ventilated cages with a 12-hour light/dark cycle. All mice were maintained in the animal facility in NTNU under specific pathogen-free conditions in accordance with institutional guidelines of the Animal Care and Use Committee at NTNU. The experimental animals were used for motor behavioral assessments, footprint test and the protein aggregation analysis in cerebellum.\nas §1"}},
  "note": "Where two headings read alike, the source gives them in different places.",
  "data": [
    {"smiles": "COc1cc(C2Oc3cc([C@H]4Oc5cc(O)cc(O)c5C(=O)[C@@H]4O)ccc3OC2CO)ccc1O", "note": "(stereo partly shown) [silibinin]", "values": [
      {"measurement": "inhibition at 15 µM", "setting": "nTBP/Q79-EGFP cells; read-out: inhibition of cleaved-PARP level", "value": "~44", "unit": "%"},
      {"measurement": "inhibition at 15 µM", "setting": "nTBP/Q79-EGFP cells; read-out: inhibition of cleaved-caspase-3 level", "value": "~100", "unit": "%"},
      {"measurement": "inhibition at 15 µM", "setting": "nTBP/Q79-EGFP cells; read-out: inhibition of cleaved-caspase-9 level", "value": "~88", "unit": "%"},
      {"measurement": "inhibition of TBP/polyQ protein aggregation in cerebellum", "setting": "SCA17 transgenic mice", "value": 100, "unit": "%"},
      {"measurement": "inhibition of cleaved caspase 3 protein level in cerebellum", "setting": "SCA17 transgenic mice", "value": 25, "unit": "%"},
      {"measurement": "reduction of cleaved PARP level, compared to the increased level with MSG only", "setting": "SH-SY5Y cells [1]", "value": 52, "unit": "%"},
      {"measurement": "reduction of cleaved-caspase-3 level, compared to the increased level with MSG only", "setting": "SH-SY5Y cells [1]", "value": 83, "unit": "%"},
      {"measurement": "reduction of cleaved-caspase-9 level, compared to the increased level with MSG only", "setting": "SH-SY5Y cells [1]", "value": 125, "unit": "%"},
      {"measurement": "apoptosis (apoptotic cells)", "setting": "SH-SY5Y cells [2]", "value": 9.04, "unit": "%"},
      {"measurement": "body weight compared to WT_saline group", "setting": "[3]", "value": "no significant differences"}
    ]}
  ]
}
